Experimental data reported in patent US20210069295A1, “GALECTINS CONTROL MTOR IN RESPONSE TO ENDOMEMBRANE DAMAGE AND PROVIDE A MECHANISM AND TARGET FOR THE TREATMENT OF AUTOPHAGY-RELATED DISEASES” (STC. UNM, priority 2017, published 2021).
Peptide text beside a SMILES is read from it.

Columns and labels:
[1] = tested on: mTOR; experiment: mTOR activity in human peripheral blood monocyte derived macrophages; assay type: cell-based; conditions: 100 μM GPN, 1 h
Experimental: (A) Dose-response analysis of mTOR activity in HEK293T cells treated with glycyl-L-phenylalanine 2-naphththylamide (GPN) in full medium for 1 h. mTOR activity was monitored by inununoblotting analysis of S6K1 (T389) and ULK1 (S757) phosphorylation (phosphorylated S6K (T389) and ULK1 (S757) relative to total S6K and ULK1, respectively). (B) Analysis of mTOR activity (as in A) after GPN washout. HEK293T cells were treated with 100 μM GPN for 1 h followed by 1 h washout in full medium. Data, means±SEM (n=3), **p<0.01, ANOVA. (C) Analysis of mTOR activity (as in A) in HEK293T cells treated with increasing doses of silica in full medium for 1 h. (D) HEK293T cells were treated with lysosomal damaging agents (LLOMe, Leu-Leu-OMe) for 1 h in full medium and status of acidified organelles assessed by quantifying LysoTracker Red DND-99 puncta using automated high-content imaging and analysis (HC). […] Data, means±SEM, n≥3 independent experiments (500 primary objects counted per well; ≥5 wells/sample per each experiment), **p<0.01, ANOVA. […] Human peripheral blood monocyte derived macrophages were treated with 100 μM GPN in full medium or starved in EBSS for 1 h, and mTOR activity measured as in A. None-treated cells were as control (Ctrl). […] Data, means±SEM, n≥3 independent experiments (500 primary objects counted per well; ≥5 wells/sample per each experiment) **p<0.01, ANOVA. […]

[2] = tested on: LC3; experiment: Autophagy induction (LC3-II levels and LC3 puncta) in HEK293T cells; assay type: cell-based; conditions: SLC38A9 knockout and wild type HEK293T, 100 μM GPN
Experimental: (A) Analysis of mTOR activity and autophagy induction in HEK293T cells (WT, wild type) and SLC38A9 knockout (SLC38A9 KO) HEK293T derivatives treated with 100 μM GPN in full medium for the indicated time points. mTOR activity was monitored by immunoblotting analysis of S6K1 phosphorylation at T389 (p-T389). Autophagy induction was monitored by immunoblotting analysis of LC3-II. (B) Analysis of autophagy induction in SLC38A9 KO cells treated with GPN. WT and SLC38A9-KO (SLCKO) HEK293T cells were treated with 100 μM GPN in full medium for 30 min, and LC3 puncta were quantified by HC. […] Data, means±SEM, n≥3 independent experiments (500 primary objects counted per well; ≥ 5 wells/sample per each experiment), **p<0.01, ANOVA. […] WT and SLC38A9 KO HEK293T cells were treated with 100 μM GPN for 1 h followed by 1 h washout in full medium. mTOR activity was monitored by immunoblotting analysis of S6K1 p-T389 and ULK1 p-S757 phosphorylation. Autophagy induction was monitored by immunoblotting analysis of LC3-II. […] Control and FLAG-SLC38A9 overexpressing HEK293T cells were treated with 100 μM GPN in full medium for 30 min, and LC3 puncta were quantified by HC. […] Data, means±SEM, n≥3 independent experiments (500 primary objects counted per well; ≥5 wells/sample per each experiment), **p<0.01, ANOVA. […]

## NCC(=O)N[C@@H](Cc1ccccc1)C(=O)Nc1ccc2ccccc2c1 [GPN, glycyl-L-phenylalanine 2-naphththylamide] (HELM PEPTIDE1{G.F.[c1ccc2cc(N[*:1])ccc2c1]}$$$$V2.0)
[1]
  mTOR activity in primary cells: confirmed
[2]
  LC3-II levels and LC3 puncta: increased robustly
